{"source": "paper PMC4448986", "about": "(Pharmacology Research & Perspectives, 2015)", "key": {"[1]": {"experiment": "PK analysis in rats", "assay_type": "in vivo", "conditions": "male, Sprague-Dawley, rat, plasma, po, 100 mg/kg"}, "[2]": {"experiment": "Water solubility by UV-vis", "conditions": "deionized water, 20 °C, thermodynamic from solid"}}}
{"compound": "C=C(c1ccc(C(=O)O)cc1)c1cc2c(cc1C)C(C)(C)CCC2(C)C", "note": "[Compound 1, bexarotene]", "values": [{"measurement": "AUC", "setting": "[1]", "result": 51.5, "unit": "µg·h/mL"}, {"measurement": "AUC(0-inf)", "setting": "[1]", "result": 54.3, "unit": "µg·h/mL"}, {"measurement": "AUC(0-t)", "setting": "[1]", "result": 51.5, "unit": "µg·h/mL"}, {"measurement": "Tmax", "setting": "[1]", "result": 2, "unit": "h"}, {"measurement": "solubility at 24 h", "setting": "[2]", "result": "0.28 ± 0.02", "unit": "µM"}]}
